The values below come from patent publication US6720339B2, “Certain fused pyrrolecarboxamides; a new class of GABA brain receptor ligands” (Neurogen Corporation, priority 1996, dated 2004).

Molecules are shown by their SMILES.

Test system in one series: not given
Experiment: not given
Conditions: not given
Take `COc1ccncc1NC(=O)c1c[nH]c2c1C(=O)CC(C)(C)C2` [Example 3(ii), N-(4-Methoxy-3-pyridyl)-4-oxo-6,6-dimethyl-4,5,6,7-tetrahydro-1H-indole-3-carboxamide]: the melting point (as a rule, the temperature, or range, at which the solid turns liquid) lay within 217 to 218 °C.

Take `CC1CC(=O)c2c(C(=O)Nc3ccccc3F)c[nH]c2C1` (stereo not shown) [Compound 5, N-(2-Fluorophenyl)-4-oxo-6-methyl-4,5,6,7-tetrahydro-1H-indole-3-carboxamide]: the melting point was in the range of 264 to 265 °C.

As to `CC1CC(=O)c2c(C(=O)Nc3cccnc3)c[nH]c2C1` (stereo not shown) [Example 3(ll), N-(3-Pyridyl)-4-oxo-6-methyl-4,5,6,7-tetrahydro-1H-indole-3-carboxamide], the melting point was in the range of 225 to 227 °C.

In the case of `COc1cccc(NC(=O)c2c[nH]c3c2C(=O)CC(C)C3)c1` (stereo not shown) [Example 3(u), N-(3-Methoxyphenyl)-4-oxo-6-methyl-4,5,6,7-tetrahydro-1H-indole-3-carboxamide], the melting point was 234 to 235 °C.

With `CCOc1ccc(NC(=O)c2c[nH]c3c2C(=O)CC(C)C3)c(F)c1` (stereo not shown) [Example 3(bb), N-(2-Fluoro-4-ethoxyphenyl)-4-oxo-6-methyl-4,5,6,7-tetrahydro-1H-indole-3-carboxamide], the melting point lay within 224 to 225 °C.

The compound `COc1ccc(NC(=O)c2c[nH]c3c2C(=O)CC(C)(C)C3)c(F)c1` [Example 3(i), N-(2-Fluoro-4-methoxyphenyl)-4-oxo-6,6-dimethyl-4,5,6,7-tetrahydro-1H-indole-3-carboxamide] had a melting point of 213 to 215 °C.

In the case of `CC1CC(=O)c2c(C(=O)Nc3ccc4ccccc4n3)c[nH]c2C1` (stereo not shown) [Compound 10, N-(2-Quinolinyl)-4-oxo-6-methyl-4,5,6,7-tetrahydro-1H-indole-3-carboxamide], the melting point was 273 to 275 °C.

In turn, `COc1ccc(NC(=O)c2c[nH]c3c2C(=O)CC(C)(C)C3)cc1O` [Example 3(h), N-(3-Hydroxy-4-methoxyphenyl)-4-oxo-6,6-dimethyl-4,5,6,7-tetrahydro-1H-indole-3-carboxamide] displayed a melting point of 282 to 284 °C.

In turn, `CC1CC(=O)c2c(C(=O)Nc3ccc(O)cc3)c[nH]c2C1` (stereo not shown) [Example 3(v), N-(4-Hydroxyphenyl)-4oxo-6-methyl-4,5,6,7-tetrahydro-1H-indole-3-carboxamide] showed a melting point of 320 °C.

For `CC1(C)CC(=O)c2c(C(=O)Nc3cccnc3)c[nH]c2C1` [Example 3(hh), N-(3-Pyridyl)-4-oxo-6,6-dimethyl-4,5,6,7-tetrahydro-1H-indole-3-carboxamide], the melting point fell in the range of 237 to 239 °C.

Take `COc1ccc(NC(=O)c2c[nH]c3c2C(=O)CC(C)C3)c(O)c1` (stereo not shown) [Example 3(x), N-(2-Hydroxy-4-methoxyphenyl)-4-oxo-6methyl-4,5,6,7-tetrahydro-1H-indole-3-carboxamide]: the melting point is 236 to 238 °C.

`CC1(C)CC(=O)c2c(C(=O)Nc3cccc(F)c3)c[nH]c2C1` [Example 3(b), N-(3-Fluorophenyl)-4-oxo-6,6-dimethyl-4,5,6,7-tetrahydro-1H-indole-3-carboxamide] returned a melting point of 259 to 261 °C.

With `COc1ccc(NC(=O)c2c[nH]c3c2C(=O)CC(C)C3)cc1` (stereo not shown) [Example 3(y), N-(4-Methoxyphenyl)-4-oxo-6-methyl-4,5,6,7-tetrahydro-1H-indole-3-carboxamide], the melting point was in the range of 260 to 261 °C.

In turn, `CC1(C)CC(=O)c2c(C(=O)Nc3ccc(F)cc3)c[nH]c2C1` [Example 3(c), N-(4-Fluorophenyl)-4-oxo-6,6-dimethyl-4,5,6,7-tetrahydro-1H-indole-3-carboxamide] had a melting point of 268 to 270 °C.

The compound `COc1ccc(NC(=O)c2c[nH]c3c2C(=O)CC(C)C3)c(F)c1` (stereo not shown) [Compound 6, N-(2-Fluoro-4-methoxyphenyl)-4-oxo-6-methyl-4,5,6,7-tetrahydro-1H-indole-3-carboxamide] returned a melting point of 217 to 219 °C.

As to `Cc1ccc(NC(=O)c2c[nH]c3c2C(=O)CC(C)C3)c(O)c1` (stereo not shown) [Example 3(dd), N-(2-Hydroxy-4-methylphenyl)-4-oxo-6-methyl-4,5,6,7-tetrahydro-1H-indole-3-carboxamide], the melting point was in the range of 258 to 260 °C.

`CC1CC(=O)c2c(C(=O)Nc3ccc(F)cc3)c[nH]c2C1` (stereo not shown) [Example 3(t), N-(4-Fluorophenyl)-4-oxo-6-methyl-4,5,6,7-tetrahydro-1H-indole-3-carboxamide] came in with a melting point of 262 to 264 °C.

The compound `CC1CC(=O)c2c(C(=O)Nc3ccncc3)c[nH]c2C1` (stereo not shown) [Example 3(mm), N-(4-Pyridyl)-4-oxo-6-methyl-4,5,6,7-tetrahydro-1H-indole-3-carboxamide] showed a melting point of 280 to 290 °C.

Compound `CC1CC(=O)c2c(C(=O)Nc3ccccc3)c[nH]c2C1` (stereo not shown) [Compound 4, N-Phenyl-4-oxo-6-methyl-4,5,6,7-tetraydro-1H-indole-3-carboxamide] yielded a melting point of 278 to 279 °C.

Take `CC1(C)CC(=O)c2c(C(=O)Nc3ccc(O)cc3F)c[nH]c2C1` [Example 3(l), N-(2-Fluoro-4-hydroxyphenyl)-4-oxo-6,6-dimethyl-4,5,6,7-tetrahydro-1H-indole-3-carboxamide]: the melting point is 225 to 227 °C.

The compound `CC1CC(=O)c2c(C(=O)Nc3ccc(O)c(O)c3)c[nH]c2C1` (stereo not shown) [Example 3(cc), N-(3,4-Dihydroxyphenyl)-4-oxo-6-methyl-4,5,6,7-tetrahydro-1H-indole-3-carboxamide] displayed a melting point of 267 to 269 °C.

In turn, `CC1CC(=O)c2c(C(=O)Nc3cccc(F)c3)c[nH]c2C1` (stereo not shown) [Example 3(s), N-(3-Fluorophenyl)-4-oxo-6-methyl-4,5,6,7-tetrahydro-1H-indole-3-carboxamide] gave a melting point of 302 to 303 °C.

Take `CC1(C)CC(=O)c2c(C(=O)Nc3ccc4cccnc4n3)c[nH]c2C1` [Compound 8, N-(1,8-Napthyridin-2yl)-4-oxo-6,6-dimethyl-4,5,6,7-tetrahydro-1H-indole-3-carboxamide]: the melting point lay in the range of 389 to 390 °C.

Turning to `COc1ccc(NC(=O)c2c[nH]c3c2C(=O)CC(C)(C)C3)c(O)c1` [Example 3(g), N-(2-Hydroxy-4-methoxyphenyl)-4-oxo-6,6-dimethyl-4,5,6,7-tetrahydro-1H-indole-3-carboxamide], the melting point is 190 to 192 °C.

The next series addresses GABAa receptor (benzodiazepine receptor). The experiment in a line: GABAa receptor binding assay (3H-RO15-1788 [3H-Flumazenil] displacement, rat cortical tissue homogenate). To be noted: radioligand 0.5 nM 3H-RO15-1788 (3H-Flumazenil), 30 min at 4° C. The protocol: The pharmaceutical utility of compounds of this invention are indicated by the following assay for GABAa receptor binding activity.
Assays are carried out as described in Thomas and Tallman (J. Bio. Chem. 156: 9838-9842, J. Neurosci. 3: 433-440, 1983). Rat cortical tissue is dissected and homogenized in 25 volumes (w/v) of 0.05 M Tris HCl buffer (pH 7.4 at 4° C.). The tissue homogenate is centrifuged in cold (4° C.) at 20,000×g for 20′. The supernatant is decanted and the pellet is rehomogenized in the same volume of buffer and again centrifuged at 20,000×g. The supernantant is decanted and the pellet is frozen at −20° C. overnight. The pellet is then thawed and rehomogenized in 25 volume (orginal wt/vol) of buffer and the procedure is carried out twice. The pellet is finally resuspended in 50 volumes (w/vol of 0.05 M Tris HCl buffer (pH 7.4 at […]).
Incubations contain […] of tissue homogenate, […] of radioligand 0.5 nM (^3H-RO15-1788 [^3H-Flumazenil] specific activity 80 Ci/mmol), drug or blocker and buffer to a total volume of […]. Incubations are carried for 30 min at 4° C. then are rapidly filtered through GFB filters to separate free and bound ligand. Filters are washed twice with fresh 0.05 M Tris HCl buffer (pH 7.4 at 4° C.) and counted in a liquid scintillation counter. 1.0 mM diazepam is added to some tubes to determine nonspecific binding. Data are collected in triplicate determinations, averaged and % inhabition of total specific binding is calculated. Total Specific Binding=Total−Nonspecific. In some cases, the amounts of unlabeled drugs is varied and total displacement curves of binding are carried out.
Take `CC1CC(=O)c2c(C(=O)Nc3ccccc3F)c[nH]c2C1` (stereo not shown) [Compound 5, N-(2-Fluorophenyl)-4-oxo-6-methyl-4,5,6,7-tetrahydro-1H-indole-3-carboxamide]: the affinity, expressed as Ki, was 0.5 nM.

`CC1CC(=O)c2c(C(=O)Nc3ccc4ccccc4n3)c[nH]c2C1` (stereo not shown) [Compound 10, N-(2-Quinolinyl)-4-oxo-6-methyl-4,5,6,7-tetrahydro-1H-indole-3-carboxamide]: the affinity corresponds to a Ki of 12 nM.

As for `COc1ccc(NC(=O)c2c[nH]c3c2C(=O)CC(C)C3)c(F)c1` (stereo not shown) [Compound 6, N-(2-Fluoro-4-methoxyphenyl)-4-oxo-6-methyl-4,5,6,7-tetrahydro-1H-indole-3-carboxamide], the inhibitory constant (Ki) – broadly, a measure of affinity in units of concentration, obtained from inhibition or displacement – was found to be 1 nM.

Compound `CC1CC(=O)c2c(C(=O)Nc3ccc4cccnc4n3)c[nH]c2C1` (stereo not shown) [Compound 9, N-(1,8-Napthyridin-2-yl)-4-oxo-6-methyl-4,5,6,7-tetahydro-1H-indole-3-carboxamide] had a Ki of 4 nM.

Consider `CC1(C)CC(=O)c2c(C(=O)Nc3ccccc3F)c[nH]c2C1` [Compound 2], for which the Ki came out at 12 nM.

For `COc1ccc(NC(=O)c2c[nH]c3c2C(=O)CC(C)(C)C3)cc1` [Compound 3, N-(4-Methoxyphenyl)-4-oxo-6,6-dimethyl-4,5,6,7-tetrahydro-1H-indole-3-carboxamide], affinity was put at a Ki of 13 nM.

Consider `CC1(C)CC(=O)c2c(C(=O)Nc3ccccc3)c[nH]c2C1` [Compound 1, N-Phenyl-4-oxo-6,6-dimethyl-4,5,6,7-tetrahydro-1H-indole-3-carboxamide], for which the affinity, expressed as Ki, was 21 nM.

Compound `CC1CC(=O)c2c(C(=O)Nc3ccccc3)c[nH]c2C1` (stereo not shown) [Compound 4, N-Phenyl-4-oxo-6-methyl-4,5,6,7-tetraydro-1H-indole-3-carboxamide] returned an inhibition constant (Ki) of 1 nM.

In turn, `CC1(C)CC(=O)c2c(C(=O)Nc3ccsc3)c[nH]c2C1` [Compound 7, N-(3-Thienyl)-4-oxo-6,6-dimethyl-4,5,6,7-tetrahydro-1H-indole-3-caboxamide] had a Ki of 10 nM.

Turning to `CC1(C)CC(=O)c2c(C(=O)Nc3ccc4cccnc4n3)c[nH]c2C1` [Compound 8, N-(1,8-Napthyridin-2yl)-4-oxo-6,6-dimethyl-4,5,6,7-tetrahydro-1H-indole-3-carboxamide], affinity was put at a Ki of 80 nM.
